How the values were obtained:
GPX4 = target: T1, GPX4 (Homo sapiens, UniProt P36969); experiment: Intracellular GPX4 activity detection; assay type: cell-based; design: endogenous in cells; host or cells: EJ bladder cancer cells
T1 sequence (P36969 1-197): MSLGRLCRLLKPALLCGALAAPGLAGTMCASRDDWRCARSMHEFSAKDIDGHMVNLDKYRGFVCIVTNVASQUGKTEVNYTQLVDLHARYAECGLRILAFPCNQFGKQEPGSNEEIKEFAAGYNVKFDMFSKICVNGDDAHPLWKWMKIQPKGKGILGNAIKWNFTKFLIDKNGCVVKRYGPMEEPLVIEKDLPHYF
Description: Initially, EJ cells (5 × 10^5) were cultured in 6-well plate with a CO2 incubator overnight at 37 °C. […] Next, EJ cells were collected and washed with PBS for 3 times. Afterwards, the cell lysates were collected by centrifugation at 5000 rpm for 10 min at 4 °C after ultrasonic lysis in an ice bath. Finally, the GPX4 activity were measured with a GPX Assay Kit based on the manufacturer’s instructions.

EJ cells [1] = experiment: Intracellular GSH content detection; assay type: cell-based
Description: Initially, EJ cells (5 × 10^5) were cultured in 6-well plate with a CO2 incubator overnight at 37 °C. […] Next, EJ cells were collected and washed with PBS for 3 times. Afterwards, the cell lysates were collected by centrifugation at 8000 g for 10 min at 4 °C after lysed by freeze-thaw treatment. Finally, the GSH contents were measured with a GSH Assay Kit based on the manufacturer’s instructions.

EJ cells [2] = experiment: Intracellular LPO content (MDA kit); assay type: cell-based
Description: Initially, EJ cells (5 × 10^5) were cultured in 6-well plate with a CO2 incubator overnight at 37 °C. […] Next, EJ cells were collected and washed with PBS for 3 times. Afterwards, the cell lysates were collected by centrifugation at 8000 g for 10 min at 4 °C after lysed by freeze-thaw treatment. Finally, the LPO contents were measured by thiobarbituric acid (TBA) reaction with a Malondialdehyde (MDA) Assay Kit based on the manufacturer’s instructions.

[3] = Hydrolysis of the peptide-porphyrin conjugates at pH 7.4 and 6.5 (dialysis, HPLC); assay type: physicochemical; settings: for Hydrolysis of SA (%): mean
Description: In vitro hydrolysis analysis of the peptide-porphyrin conjugates was studied in pH values of 7.4 and 6.5 solutions. 20 mg of peptide-porphyrin conjugate was dissolved in 2 mL pH 7.4 buffer solution, which was then transferred into a dialysis bag (MWCO: 1000 Da) and immersed in 25 mL of different pH buffer solutions at 37 °C with continuous shaking respectively. At fixed time intervals (20 min, 40 min, 1 h, 2 h and 4 h), […] chromatography (HPLC, WATERS Alliance HPLC e2489), and an equal volume of fresh buffer solution was replaced to the system. In order to determine the CAA concentration according to the peak area of the CAA, a standard curve of the CAA was plotted, with the peak area as a function of the concentration. […]

GPX4 protein = experiment: Microscale Thermophoresis (MST) ligand binding; settings: for Fnorm (‰), MST original data: labelled GPX4
Description: Initially, GPX4 was labeled using Protein Labeling Kit RED-NHS according to the manufacturer’s instructions to investigate the binding affinity of Gi-F-CAA, Gi-F and NGi-F-CAA with GPX4 protein. Afterward, the labelled GPX4 protein was incubated with series of Gi-F-CAA, Gi-F and NGi-F-CAA concentration gradients. Finally, the prepared samples were loaded into silica capillaries and measured with Monolish NT.115. Apparent Kd represented the affinity of assemblies rather than a single molecule. Bovine serum albumin (BSA) was used as control for calculating the apparent binding affinity between Gi-F (nanoparticle) to GPX4 protein. Briefly, as the diameter of nanoparticle is proportional to the molecular weight, according to the reported bovine serum albumin (BSA) protein size and molecular weight (7.2 nm, 66.43 KDa), the molecular weight of Gi-F nanoparticle with an average 78 nm size can be calculated to be […]. The monomer amount Gi-F nanoparticle was calculated as […].

Particle size by DLS = assay type: physicochemical; settings: 40 μM, PBS 0.01 M, pH 6.5, with GPX4; Supplementary Fig. 18
Description: Nano-ZS 3600 (Malvern Instruments, UK) was used to measure the size distribution of the peptide-porphyrin conjugate solutions. The conjugate solutions (40 μM) were incubated at pH 7.4 or pH 6.5 before measurements. An average value was determined by three repeated measurements at 25 °C for each sample. Besides, transmission electron microscopy (TEM, Tecnai G2 20 S-TWIN) was conducted to observe the morphology and diameters of conjugates in aqueous solution, The conjugates (50 μL, 40 μM) were kept in PB solution at pH 7.4 or pH 6.5, which were dropped on copper meshes. After 5 min, unnecessary liquid was removed and the uranyl acetate solution (10 μL) was dropped on this copper mesh to stain the samples for 10 min. Finally, the copper meshes were washed with deionized water, and dried at room temperature for observation.

FeTCPP-LKLKLK(SA)GACNWLPLYPCPV (disulfide) [Gi-F-SA, control conjugate decorated with non-sensitive succinic anhydride (SA) moieties]
Relative activity of GPX4 (GPX4; EJ cells, 8 h, pH 7.4, PBS group normalized as 1, #1): 0.62 | Relative activity of GPX4 (GPX4; EJ cells, 8 h, pH 7.4, PBS group normalized as 1, #2): 0.59 | Relative activity of GPX4 (GPX4; EJ cells, 8 h, pH 7.4, PBS group normalized as 1, #3): 0.73 | Relative activity of GPX4 (GPX4; pH=7.4, replicate #1): 0.61 | Relative activity of GPX4 (GPX4; pH=7.4, replicate #2): 0.62 | Relative activity of GPX4 (GPX4; pH=7.4, replicate #3): 0.66 | Relative GSH levels (EJ cells [1]; pH=7.4, replicate #1): 0.589 | Relative GSH levels (EJ cells [1]; pH=7.4, replicate #2): 0.628 | Relative GSH levels (EJ cells [1]; pH=7.4, replicate #3): 0.53 | Relative MDA levels (EJ cells [2]; pH=7.4, replicate #1): 2.76 | Relative MDA levels (EJ cells [2]; pH=7.4, replicate #2): 2.24 | Relative MDA levels (EJ cells [2]; pH=7.4, replicate #3): 2 | Hydrolysis of SA (%) ([3]; pH 6.5, 0 min): 0% | Hydrolysis of SA (%) ([3]; pH 6.5, 20 min): 1.1% | Hydrolysis of SA (%) ([3]; pH 6.5, 40 min): 1.9% | Hydrolysis of SA (%) ([3]; pH 6.5, 60 min): 2.1% | Hydrolysis of SA (%) ([3]; pH 6.5, 120 min): 2.1% | Hydrolysis of SA (%) ([3]; pH 6.5, 240 min): 2.3% | hydrolysis at pH 6.5 and 7.4 ([3]; pH 6.5 and 7.4, HPLC, Supplementary Fig. 11): little hydrolysis | Hydrolysis of SA (%) ([3]; pH 7.4, 0 min): 0% | Hydrolysis of SA (%) ([3]; pH 7.4, 20 min): 1% | Hydrolysis of SA (%) ([3]; pH 7.4, 40 min): 1.2% | Hydrolysis of SA (%) ([3]; pH 7.4, 60 min): 1.6% | Hydrolysis of SA (%) ([3]; pH 7.4, 120 min): 1.9% | Hydrolysis of SA (%) ([3]; pH 7.4, 240 min): 2.4%

FeTCPP-LKLKLKGACNWLPLYPCPV (disulfide) [Gi-F]
Fnorm (‰), MST original data (GPX4 protein; nanoparticle ligand concentration 3.07265e-11 (μM)): 857.598 ‰ | Fnorm (‰), MST original data (GPX4 protein; nanoparticle ligand concentration 6.14531e-11 (μM)): 848.131 ‰ | Fnorm (‰), MST original data (GPX4 protein; nanoparticle ligand concentration 1.22906e-10 (μM)): 859.494 ‰ | Fnorm (‰), MST original data (GPX4 protein; nanoparticle ligand concentration 2.45812e-10 (μM)): 850.692 ‰ | Fnorm (‰), MST original data (GPX4 protein; nanoparticle ligand concentration 4.91623e-10 (μM)): 861.283 ‰ | Fnorm (‰), MST original data (GPX4 protein; nanoparticle ligand concentration 9.8325e-10 (μM)): 853.275 ‰ | Fnorm (‰), MST original data (GPX4 protein; nanoparticle ligand concentration 1.9665e-9 (μM)): 865.165 ‰ | Fnorm (‰), MST original data (GPX4 protein; nanoparticle ligand concentration 3.933e-9 (μM)): 860.627 ‰ | Fnorm (‰), MST original data (GPX4 protein; nanoparticle ligand concentration 7.86601e-9 (μM)): 880.817 ‰ | Fnorm (‰), MST original data (GPX4 protein; nanoparticle ligand concentration 1.5732e-8 (μM)): 885.875 ‰ | Fnorm (‰), MST original data (GPX4 protein; nanoparticle ligand concentration 3.1464e-8 (μM)): 915.502 ‰ | Fnorm (‰), MST original data (GPX4 protein; nanoparticle ligand concentration 6.29279e-8 (μM)): 920.264 ‰ | Fnorm (‰), MST original data (GPX4 protein; nanoparticle ligand concentration 1.25856e-7 (μM)): 943.293 ‰ | Fnorm (‰), MST original data (GPX4 protein; nanoparticle ligand concentration 2.51712e-7 (μM)): 935.723 ‰ | Fnorm (‰), MST original data (GPX4 protein; nanoparticle ligand concentration 5.03423e-7 (μM)): 956.979 ‰ | Fnorm (‰), MST original data (GPX4 protein; nanoparticle ligand concentration 1.00685e-6 (μM)): 946.244 ‰ | increase of binding affinity to GPX4 versus Gi-F-CAA (GPX4 protein; ratio of MST Kd values): ~ 55 times | particle size (DLS) after incubation with GPX4 (Particle size by DLS): ~ 90 ± 9 nm

— publication PMC10784468 (Nature Communications, 2024)
